Assay results: patent publication US12377035B2, “Peptides for inhibiting cholinergic calcitonin gene-related peptide (CGRP) and acetylcholine (ACH) release or inhibiting sensitization-mediated by TRPV1-mediated excitability in sensory neurons and methods of use thereof” (AZIENDE CHIMICHE RIUNITE ANGELINI FRANCESCO—A.C.R.A.F. …, priority 2018, dated 2025)
Residues, ends and D or L forms follow the SMILES beside them. *: point of attachment. Palmitoyl = CCCCCCCCCCCCCCCC(=O)*

Experiments:
Assay type in all cases: cell-based
[1] = tested on: human epidermal keratinocytes (HEKa); assay: MTT cell viability assay on epidermal keratinocytes; conditions: for % inhibition cell viability: HEKa, 24 hours
Method: (§1) This example evaluated effects of the peptides of invention on human epidermal keratinocytes and dermal fibroblasts. Cell viability was determined with the 3-(4,5-dimethyl-2-thiazolyl)-2,5-diphenyl-2H-tetrazolium bromide (MTT) assay. The MTT assay is a colorimetric reaction based on the capacity of the mitochondrial dehydrogenase enzyme to break and transform the tetrazolium rings of MTT. Epidermal keratinocytes (HEKa) were seeded in a previously coated 96 well-plate at 50-60% confluence in 100 μL of supplemented corresponding medium. Dermal fibroblasts (HDFa) were seeded in a 96 well-plate at 70% confluence in 100 μL supplemented medium. For both cell lines, 24 hours after seeding, medium was replaced by fresh supplemented medium containing peptides dissolved at concentration range between 0.1 and 200 μM. All test substances were incubated for 24 hours at 37° C. and 5% CO2. Afterwards, medium was replaced by 0.5 mg/ml of MTT solution for 4 hours in complete medium. Then, medium was carefully removed and 150 μL/well of DMSO were added to solubilize formazan crystals. Plate was protected from light, shaken for 60 seconds and optical density was measured at 570 nm with a reference filter of 620 nm. Table F details effects of peptides of invention on keratinocytes and fibroblasts cell viability expressed as percentage of inhibition.

[2] = tested on: acetylcholine release, human neuroblastoma cell line differentiated to cholinergic neuronal phenotype; assay: Inhibition of KCl-induced acetylcholine release in a neuroblastoma cell line (Amplex Red); conditions: 50 mM KCl
Method: To determine the compound of the invention effects on acetylcholine release, a human neuroblastoma cell line (50.000 cells/well) was used. Cells were differentiated to cholinergic neuronal phenotype for 4 days. Then, cells were pre-incubated for 60 minutes with the compounds (between 0.1 and 100 μM) as acetyl- or palmitoyl-form and conjugated with trifluoroacetate (TFA) or acetate salt. Afterwards, acetylcholine release was induced by membrane depolarization evoked by 15 minutes incubation with 50 mM KCl. Acetylcholine level in supernatants was quantified by using Amplex® Red Acetylcholine Assay Kit (Thermofisher) following manufacturer's instructions. […] Fluorescence (Ex 530 nm/Em 590 nm) was measured in FluorStar equipment. Acetylcholine content was normalized to the total protein content using BCA assay (Pierce) following manufacturer's instructions. Fluorescence measurements were normalized to the maximum signal detected with KCl stimulation in vehicle treated cells. Vesicle exocytosis disruption by the compounds of the invention lead to a decrease of acetylcholine release (Table E).

[3] = tested on: human dermal fibroblasts (HDFa); assay: MTT cell viability assay on dermal fibroblasts; conditions: for % inhibition cell viability: HDFa, 24 hours
Method: as §1

Compound | % inhibition cell viability ([1]; 1 μM) | % inhibition cell viability ([1]; 5 μM) | % inhibition cell viability ([1]; 10 μM) | % inhibition cell viability ([1]; 50 μM) | % Ach release inhibition ([2]; TFA salt, 5 μM) | % Ach release inhibition ([2]; TFA salt, 50 μM) | % inhibition cell viability ([3]; 1 μM) | % inhibition cell viability ([3]; 5 μM) | % inhibition cell viability ([3]; 10 μM) | % inhibition cell viability ([3]; 50 μM) | % Ach release inhibition ([2]; TFA salt, 0.1 μM) | % Ach release inhibition ([2]; TFA salt, 1 μM) | % Ach release inhibition ([2]; TFA salt, 10 μM) | further results
CCCCCCCCCCCCCCCC(=O)N[C@@H](CC(C)C)C(=O)N[C@@H](CCCNC(=N)N)C(=O)N[C@H](C(=O)N[C@@H](CCC(N)=O)C(=O)N[C@@H](CCSC)C(=O)N[C@H](C(=O)N[C@@H](CC(N)=O)C(=O)N[C@@H](CCSC)C(=O)N[C@@H](Cc1ccccc1)C(=O)N[C@@H](CC(C)C)C(N)=O)C(C)C)C(C)C [SEQ ID NO: 4 palmitoyl, LRVQMVNMFL] (Palmitoyl-LRVQMVNMFL-NH2) | −7.6% | 7.0% | 18.0% | 34.2% | 26.4% | 83.0% | 34.2% | 42.6% | 40.9% | 37.7% | – | – | – | % inhibition cell viability ([1]; 0.1 μM): −6.2%; % inhibition cell viability ([1]; 0.5 μM): 1.0%; effect on keratinocyte viability (in words) ([1]; assessed below 50 μM): did not modify keratinocyte viability; % inhibition cell viability ([3]; 0.1 μM): 15.2%; % inhibition cell viability ([3]; 0.5 μM): 26.9%
CCCCCCCCCCCCCCCC(=O)N[C@@H](Cc1c[nH]c2ccccc12)C(=O)N[C@@H](CCC(=O)O)C(=O)N[C@@H](CCC(N)=O)C(=O)N[C@@H](CCC(=O)O)C(=O)N[C@@H](Cc1ccccc1)C(=O)N[C@@H](CC(C)C)C(=O)N[C@@H](CCCNC(=N)N)C(=O)N[C@@H](CCCNC(=N)N)C(N)=O [SEQ ID NO: 5 palmitoyl, WEQEFLRR] (Palmitoyl-WEQEFLRR-NH2) | −2.9% | −5.5% | −6.3% | −24.3% | 25.1% | 17.9% | −0.2% | 10.3% | 7.6% | 18.0% | 16.4% | 16.1% | 24.7% | –
Ac-WEQEFLRR-NH2 [SEQ ID NO: 5 acetyl, WEQEFLRR] | −5.7% | 0.8% | 4.2% | 4.3% | – | 51.5% | 9.3% | 10.0% | 12.1% | 10.0% | 19.0% | 22.0% | 52.8% | % inhibition cell viability ([1]; 100 μM): 10.4%; % inhibition cell viability ([1]; 200 μM): 23.7%; effect on cell viability (in words) ([1]; human epidermal keratinocytes, up to 200 μM): did not modify cell viability; % Ach release inhibition ([2]; Acetate salt, 0.1 μM): around 40%; % Ach release inhibition ([2]; TFA salt, 100 μM): 81.6%; % inhibition cell viability ([3]; 100 μM): 15.0%; % inhibition cell viability ([3]; 200 μM): 14.7%; effect on cell viability (in words) ([3]; dermal fibroblast, up to 200 μM): did not modify cell viability
